Consider 13 compounds from patent US8273900B2, “Organic compounds” (Novartis AG, priority 2008, dated 2012).

pIC50: −log10 of the molar value.

This assay concerns the target T1, human recombinant CRF-1 receptor (Homo sapiens, UniProt P34998).
T1 construct: expressed in transfected cells; host or cells: CHO cells (G418-selected)
T1 sequence (P34998 24-415): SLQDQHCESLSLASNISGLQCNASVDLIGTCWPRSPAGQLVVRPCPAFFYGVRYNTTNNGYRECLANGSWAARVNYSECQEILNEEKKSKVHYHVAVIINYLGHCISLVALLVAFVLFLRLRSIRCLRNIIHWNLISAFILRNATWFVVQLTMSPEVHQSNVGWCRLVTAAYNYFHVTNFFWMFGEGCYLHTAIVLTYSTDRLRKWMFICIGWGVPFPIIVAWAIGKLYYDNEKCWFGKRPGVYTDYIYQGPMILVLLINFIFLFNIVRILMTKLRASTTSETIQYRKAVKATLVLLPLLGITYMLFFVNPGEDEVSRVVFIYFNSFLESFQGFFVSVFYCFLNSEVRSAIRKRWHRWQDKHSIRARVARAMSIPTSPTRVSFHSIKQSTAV
The assay can be described thus: CRF-1 receptor antagonism, HTRF cAMP assay in CHO cells in the presence of 1 nM CRF. The format is cell-based. As to conditions: CHO cells expressing human recombinant CRF-1; inhibition of the effect of 1 nM CRF on cAMP. As for the experimental part:
The CRF-1 or CRF-2α receptor antagonistic activity of the agents of the invention has been determined in vitro in the following assay:
Chinese hamster ovary (CHO) cells expressing either the human recombinant CRF-1 or CRF-2a receptors (Chen et al., Proc Natl Acad Sci USA 90, 8967-8971, 1993; Liaw et al., Endocrinology 137, 72-77, 1996) are propagated in Dulbecco's modified Eagle medium supplemented with 10% foetal calf serum, non-essential amino acids, 100 U/ml penicillin, 100 mg/l streptomycin and 1 g/l geneticin (G418). For cyclic AMP determinations the Homogeneous Time-Resolved Fluoresce (HTRF) cAMP dynamic 2 kit (Cisbio International, France) was used as per manufacturers' instructions. CHO cells, previously cryopreserved, were thawed, centrifuged for 7 mins at 1200 rpm and resuspended in serum free media, then pipetted out onto clear bottomed black tissue culture treated 384-well microtitre plates (Corning Inc, US) at 2,000 cells per well. Compounds of the invention, prepared in DMSO, and subsequently diluted 50 fold in assay buffer (1× Hanks balanced salt solution, 0.2% (w/v) bovine serum albumin, 1.7 mM isobutylmethylxanthine and 10 mM Hepes, pH 7.4) are then added onto the cell containing plate where a further 2 fold dilution is performed and incubated for 15 min. Following incubation, buffer containing a 5 times final concentration of agonist is added to the plate and incubated for 30 min. Finally, d2 dye labelled cAMP and cryptate labeled anti-cAMP antibody, both made in lysis buffer, are added to the plate followed by a settling period of 1 hour. During the settling period cAMP produced by the cells competes with the d2 labelled cAMP for the anti-cAMP cryptate. The plate is read on the Pherastar (BMG, Germany). Increasing levels of endogenous cAMP produced by cells can be followed by a decrease of fluorescent signal and vice versa. Values represented by a change in arbitrary fluorescence units are converted into cAMP concentrations by use of a standard curve the reagents for which are supplied with the kit. Antagonist dose response curves (1 nM-30 μM) are constructed in the presence of 1 nM CRF. IC50 values of antagonists are calculated by fitting the percent inhibition of the effect of CRF by increasing concentrations of the antagonists. The fit is performed using the nonlinear logistic function of the Activitybase software package v 5.4.5.27 (IDBS, UK).
For orientation: Time-resolved FRET reads energy transfer from a long-lived donor to a nearby acceptor.
Consider `Cc1cc(NC[C@H]2CC[C@H](NC(=O)c3cc(C(F)(F)F)ccc3Cl)CC2)ncc1Cl` [Example 19.69, Trans-2-chloro-N-(4-((5-chloro-4-methylpyridin-2-ylamino)methyl)cyclohexyl)-5-(trifluoromethyl) benzamide], for which the pIC50 is 7.66.

In the case of `Cc1n[nH]c(NC[C@H]2CC[C@H](NC(=O)c3cc(C(F)(F)F)ccc3Cl)CC2)c1Cl` [Example 19.114, Trans-2-Chloro-N-{4-[(4-chloro-5-methyl-2H-pyrazol-3-ylamino)-methyl]-cyclohexyl}-5-trifluoromethyl-benzamide], the pIC50 was 7.47.

Take `O=C(N[C@H]1CC[C@@H](CNc2cc(-c3ccc(F)cc3)n[nH]2)CC1)c1cc(C(F)(F)F)ccc1Cl` [Example 14, Cis-2-Chloro-N-(4-{[5-(4-fluoro-phenyl)-2H-pyrazol-3-ylamino]-methyl}-cyclohexyl)-5-trifluoromethyl-benzamide]: the pIC50 was 5.49. In the case of `O=C(N[C@H]1CC[C@H](CNc2n[nH]cc2-c2ccccc2)CC1)c1cc(C(F)(F)F)ccc1Cl` [Example 19.94, Trans-2-chloro-N-(4-((4-phenyl-1H-pyrazol-3-ylamino)methyl)cyclohexyl)-5-(trifluoromethyl) benzamide], the negative logarithm of the IC50 (pIC50) was 7.23. For `CN(Cc1cc(-c2ccccc2)n[nH]1)C[C@H]1CC[C@H](NC(=O)c2cc(Cl)ccc2Cl)CC1` [Example 11, Trans-2,5-Dichloro-N-(4-{[methyl-(5-phenyl-2H-pyrazol-3-ylmethyl)amino]-methyl}-cyclohexyl)-benzamide], the pIC50 is 6.76. The same measure for `Cc1cc(NC[C@H]2CC[C@H](NC(=O)c3cc(Cl)cnc3C)CC2)ncc1F` [Example 19.54, Trans-5-chloro-N-(4-((5-fluoro-4-methylpyridin-2-ylamino)methyl)cyclohexyl)-2-methylnicotinamide]: 7.21; for `CCCc1[nH]nc(NC[C@H]2CC[C@H](NC(=O)c3cc(C(F)(F)F)ccc3Cl)CC2)c1Br` [Example 19.76, Trans-N-(4-((4-bromo-5-propyl-1H-pyrazol-3-ylamino)methyl)cyclohexyl)-2-chloro-5-(trifluoromethyl) benzamide]: 7.11; for `Cc1ncc(Cl)cc1C(=O)N[C@H]1CC[C@H](Cn2nc(C(F)(F)F)cc2C)CC1` [Example 22.7, Trans-5-Chloro-2-methyl-N-[4-(5-methyl-3-trifluoromethyl-pyrazol-1-ylmethyl)-cyclohexyl]-nicotinamide]: 6.73. Regarding `O=C(N[C@H]1CC[C@H](CNCc2cc(-c3ccccc3)on2)CC1)c1cc(C(F)(F)F)ccc1Cl` [Example 2.35, Trans-2-Chloro-N-(4-{[(5-phenyl-isoxazol-3-ylmethyl)-amino]-methyl}-cyclohexyl)-5-trifluoromethyl-benzamide], the pIC50 is 6.46. In the case of `COc1ccc2c(NC[C@H]3CC[C@H](NC(=O)c4cc(C(F)(F)F)ccc4Cl)CC3)n[nH]c2c1` [Example 19.68, Trans-2-chloro-N-(4-((6-methoxy-1H-indazol-3-ylamino)methyl)cyclohexyl)-5-(trifluoromethyl) benzamide], the pIC50 was 7.49. For the compound `Cc1cc(C)nc(NC[C@H]2CC[C@H](NC(=O)c3cc(C(F)(F)F)ccc3Cl)CC2)c1` [Example 2.6, Trans-2-Chloro-N-{4-[(4,6-dimethyl-pyridin-2-ylamino)-methyl]-cyclohexyl}-5-trifluoromethyl-benzamide], the pIC50 was 6.67. For `Cc1ncc(Cl)cc1C(=O)N[C@H]1CC[C@H](Cn2nc(C)c(Cl)c2C)CC1` [Example 17, Trans-5-Chloro-N-[4-(4-chloro-3,5-dimethyl-pyrazol-1-ylmethyl)-cyclohexyl]-2-methyl-nicotinamide], the pIC50 was 7.15. For the compound `Cc1ncc(Cl)cc1C(=O)N[C@H]1CC[C@H](Cn2nc(C)c(C)c2C)CC1` [Example 18, Trans-5-Chloro-2-methyl-N-[4-(3,4,5-trimethyl-pyrazol-1-ylmethyl)-cyclohexyl]-nicotinamide], the negative logarithm of the IC50 (pIC50) was 6.24.

The pIC50 is the IC50 on a negative log10 scale, so that one unit is a factor of ten.
